± gives the standard deviation of the reports.
Compound	glass transition temperature
*C(=O)c1ccc2c(c1)C(=O)N(c1cc(/C=N/C(=S)Nc3ccc(N4C(=O)c5ccc(*)cc5C4=O)cc3)ccc1Cl)C2=O (repeat unit)	274.00 °C
*CC(*)(C#N)C(=O)OCCCC (repeat unit)	117.00 °C
*/C=C/C1CC(*)C(C#N)(CCCC)C1 (repeat unit)	87.00 °C
*C(=O)Oc1ccc(OCCCCCCCCCCCCOc2ccc(OC(=O)c3ccc4c(c3)C(=O)N(c3ccc(Cc5ccc(N6C(=O)c7ccc(*)cc7C6=O)cc5)cc3)C4=O)cc2)cc1 (repeat unit)	125.00 °C
*OP(=O)(Oc1ccc([N+](=O)[O-])cc1)Oc1ccc(S(=O)(=O)c2ccc(*)cc2)cc1 (repeat unit)	114.00 °C
*CC(*)C(=O)OCCCSCCC#N (repeat unit)	-58.00 °C
*c1ccc2c(c1)C(=O)N(c1ccc(C(c3ccc(N4C(=O)c5ccc(C(*)(C(F)(F)F)C(F)(F)F)cc5C4=O)cc3)(C(F)(F)F)C(F)(F)F)cc1)C2=O (repeat unit)	315.10 °C
*c1ccc(Oc2ccc(-c3ccc(Oc4ccc(N5C(=O)c6cccc(Oc7ccc(C(c8ccc(Oc9cccc%10c9C(=O)N(*)C%10=O)cc8)(C(F)(F)F)C(F)(F)F)cc7)c6C5=O)cc4)cc3)cc2)cc1 (repeat unit)	234.00 °C
*c1cccc(-n2c(=O)c3cc4c(=O)n(*)c(=O)c4cc3c2=O)c1 (repeat unit)	430.00 °C
*CC(*)(CC(=O)OC1CCCCC1)C(=O)OC1CCCCC1 (repeat unit)	142.00 °C
*C(=O)c1cc(C(=O)c2ccc3c(c2)C(=O)N(c2ccc(C(c4ccc(N5C(=O)c6ccc(*)cc6C5=O)cc4)(C(F)(F)F)C(F)(F)F)cc2)C3=O)cc(C(C)(C)C)c1 (repeat unit)	267.50 °C
*c1ccc(Oc2ccc(-c3cc(-c4ccc(Oc5ccc(-c6cc(*)nc7ccccc67)cc5)cc4)c4ccccc4n3)cc2)cc1 (repeat unit)	300.00 °C
*CC(*)(C)C(=O)OCCC[Si]12O[Si]3(CC(C)C)O[Si]4(CC(C)C)O[Si](CC(C)C)(O1)O[Si]1(CC(C)C)O[Si](CC(C)C)(O2)O[Si](CC(C)C)(O3)O[Si](CC(C)C)(O4)O1 (repeat unit)	85.00 °C
*c1ccc(-c2nc3cc(Oc4ccc(NC(=O)CN5C(=O)c6ccc(C(c7ccc8c(c7)C(=O)N(CC(=O)Nc7ccc(Oc9ccc%10nc(-c%11ccccc%11)c(-c%11ccc(N%12C(=O)c%13ccc%14c%15c(ccc(c%13%15)C%12=O)C(=O)N(*)C%14=O)cc%11)nc%10c9)cc7)C8=O)(C(F)(F)F)C(F)(F)F)cc6C5=O)cc4)ccc3nc2-c2ccccc2)cc1 (repeat unit)	306.00 °C
*CC(*)OC(=O)C1CCCCC1 (repeat unit)	66.00 °C
*c1ccc(Oc2ccccc2Oc2ccc(N3C(=O)c4ccc(Oc5cc6ccccc6cc5Oc5ccc6c(c5)C(=O)N(*)C6=O)cc4C3=O)cc2)cc1 (repeat unit)	204.00 °C
*Oc1cccc(C(*)=O)c1 (repeat unit)	162.00 °C
*c1ccc(Cc2ccc(N3C(=O)c4ccc(OCCN(CCOc5ccc6c(c5)C(=O)N(*)C6=O)c5ccc(/C=C/c6ccc([N+](=O)[O-])cc6)cc5)cc4C3=O)cc2)cc1 (repeat unit)	160.70 °C
*c1ccc(Oc2cccc(NC(=O)c3ccc(C(=O)Nc4cccc(Oc5ccc(-c6nnc(*)o6)cc5)c4)c(Oc4ccccc4)c3)c2)cc1 (repeat unit)	234.00 °C
*Sc1ccc(P(=O)(c2ccccc2)c2ccc(Sc3ccc(-c4ccc(*)cc4)cc3)cc2)cc1 (repeat unit)	232.00 °C
*Oc1c(C)cc(C2(c3cc(C)c(OC(=O)c4cccc(C(*)=O)c4)c(C)c3)c3ccccc3-c3ccccc32)cc1C (repeat unit)	315.00 °C
*CC(*)c1ccc(OC(C)=O)cc1 (repeat unit) [poly(4-acetoxystyrene)]	121.42 ± 12 °C
*CC(*)(C)c1nc(N(CCOCCOCCOC)CCOCCOCCOC)nc(N(CCOCCOCCOC)c2ccccc2)n1 (repeat unit)	-75.00 °C
*c1ccc(Oc2cc(C(C)(C)C)c(Oc3ccc(-n4c(=O)c5cc6c(=O)n(*)c(=O)c6cc5c4=O)cc3)cc2C(C)(C)C)cc1 (repeat unit)	298.00 °C
*OP(=O)(Oc1ccccc1)Oc1ccc(-c2ccc(*)cc2)cc1 (repeat unit)	112.00 °C

The remaining lines, values ahead:

glass transition temperature	Compound
270.00 °C	*Nc1ccc(NC(=O)c2ccc(C(c3ccc(C(*)=O)c(C(=O)OCC)c3)(C(F)(F)F)C(F)(F)F)cc2C(=O)OCC)cc1 (repeat unit)
221.00 °C	*Oc1ccc(S(=O)(=O)c2ccc(Oc3ccc(-c4ccc(*)cc4)cc3)cc2)cc1 (repeat unit)
163.00 °C	*CCCCCCNC(=O)c1cc(C(=O)N*)cc(C(C)(C)C)c1 (repeat unit)
73.00 °C	*c1ccc2c(c1)C(CCCCCC)(CCCCCC)c1cc(-c3cc(OCc4ccccc4)c(*)cc3OCc3ccccc3)ccc1-2 (repeat unit)
30.00 °C	*CC(*)C(=O)OCCCCCCOC(=O)c1ccc(OC(=O)c2ccc(C#N)cc2)cc1 (repeat unit)
243.00 °C	*Oc1ccc(C(CC)(c2ccccc2)c2ccc(OC(=O)c3ccc(C(*)=O)cc3)cc2)cc1 (repeat unit)
230.00 °C	*CC(*)c1ccc(B(Oc2ccc(-c3ccc(N(C)C)cc3)c3cccnc23)c2ccc(C(C)(C)C)cc2)cc1 (repeat unit)
133.00 °C	*Nc1ccc(NC(=O)CCCCCC(*)=O)cc1 (repeat unit)
112.00 °C	*CCCCCCNC(=O)c1ccc(C(=O)N*)c(Oc2ccc(Cl)cc2)c1 (repeat unit)
39.00 °C	*CC(C[Si](*)(C)C)c1cccc2ccccc12 (repeat unit)
-36.00 °C	*CCC[Si](*)(C[Si](C)(C)c1ccccc1)C[Si](C)(C)c1ccccc1 (repeat unit)
203.00 °C	*c1ccc(Oc2ccc(C(c3ccc(Oc4ccc(-c5nnc(*)n5-c5ccccc5)cc4)cc3)(C(F)(F)F)C(F)(F)F)cc2)cc1 (repeat unit)
43.30 °C	*O[Si](*)(C)CCCOc1ccc(-c2ccc(OC(=O)CCCCC(=O)OC3CC(C)CCC3C(C)C)cc2)cc1 (repeat unit)
178.00 °C	*CCCC(=O)Nc1ccc(Oc2ccc(Oc3ccc(NC(=O)CCCN4C(=O)c5ccc(C(=O)c6ccc7c(c6)C(=O)N(*)C7=O)cc5C4=O)cc3)cc2)cc1 (repeat unit)
165.00 °C	*CCNC(=O)c1ccc([Si](c2ccccc2)(c2ccccc2)c2ccc(C(=O)NCCN(*)c3ccc(/C=C/c4ccc([N+](=O)[O-])cc4)cc3)cc2)cc1 (repeat unit)
26.40 °C	*c1ccc(-c2sc(-c3ccc(-c4cc(SCCCC)c(*)s4)cc3)cc2SCCCC)cc1 (repeat unit)
115.00 °C	*CC(*)(C)C(=O)OCCOc1ccc(-c2ccc(-c3ccc(C#N)cc3)cc2)cc1 (repeat unit)
38.00 °C	*CCC[Si](*)(c1ccc(C)cc1)c1ccc(C)cc1 (repeat unit)

From the PolyMetriX glass transition set
